# Measured values: paper PMC5053573, “Structure-Based Design of Tetrahydroisoquinoline-7-carboxamides as Selective Discoidin Domain Receptor 1 (DDR1) Inhibitors” (Journal of Medicinal Chemistry, 2016)
# Key:
# Assay in all cases: biochemical
# Details in all cases: read-out: %Ctrl @ 1000nM
# [1] = biological target: ABL1(H396P)-nonphosphorylated (Homo sapiens, UniProt P00519, H396P)
# [2] = biological target: ABL1(Y253F)-phosphorylated (Homo sapiens, UniProt P00519, Y253F)
# CAMK2A = CAMK2A (Homo sapiens, UniProt Q9UQM7)
# CDK2 = CDK2 (Homo sapiens, UniProt P24941)
# CSF1R-autoinhibited = CSF1R-autoinhibited (Homo sapiens, UniProt P07333)
# CSNK1A1 = CSNK1A1 (Homo sapiens, UniProt P48729)
# DAPK2 = DAPK2 (Homo sapiens, UniProt Q9UIK4)
# DAPK2, sequence (Q9UIK4 whole entry): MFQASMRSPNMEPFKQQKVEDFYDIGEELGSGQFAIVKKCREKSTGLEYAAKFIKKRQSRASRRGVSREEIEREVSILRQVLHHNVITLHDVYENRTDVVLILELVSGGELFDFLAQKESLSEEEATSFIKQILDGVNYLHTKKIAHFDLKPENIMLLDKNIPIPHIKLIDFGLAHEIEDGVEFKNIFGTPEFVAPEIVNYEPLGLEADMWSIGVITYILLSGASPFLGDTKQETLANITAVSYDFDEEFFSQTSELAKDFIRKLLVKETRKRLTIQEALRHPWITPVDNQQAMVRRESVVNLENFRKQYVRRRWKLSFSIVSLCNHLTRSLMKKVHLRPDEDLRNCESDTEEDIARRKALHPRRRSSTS
# DCAMKL1 = biological target: T1, DCAMKL1 (Homo sapiens, UniProt O15075)
# T1 construct: gene DCLK1
# T1 sequence (O15075 whole entry): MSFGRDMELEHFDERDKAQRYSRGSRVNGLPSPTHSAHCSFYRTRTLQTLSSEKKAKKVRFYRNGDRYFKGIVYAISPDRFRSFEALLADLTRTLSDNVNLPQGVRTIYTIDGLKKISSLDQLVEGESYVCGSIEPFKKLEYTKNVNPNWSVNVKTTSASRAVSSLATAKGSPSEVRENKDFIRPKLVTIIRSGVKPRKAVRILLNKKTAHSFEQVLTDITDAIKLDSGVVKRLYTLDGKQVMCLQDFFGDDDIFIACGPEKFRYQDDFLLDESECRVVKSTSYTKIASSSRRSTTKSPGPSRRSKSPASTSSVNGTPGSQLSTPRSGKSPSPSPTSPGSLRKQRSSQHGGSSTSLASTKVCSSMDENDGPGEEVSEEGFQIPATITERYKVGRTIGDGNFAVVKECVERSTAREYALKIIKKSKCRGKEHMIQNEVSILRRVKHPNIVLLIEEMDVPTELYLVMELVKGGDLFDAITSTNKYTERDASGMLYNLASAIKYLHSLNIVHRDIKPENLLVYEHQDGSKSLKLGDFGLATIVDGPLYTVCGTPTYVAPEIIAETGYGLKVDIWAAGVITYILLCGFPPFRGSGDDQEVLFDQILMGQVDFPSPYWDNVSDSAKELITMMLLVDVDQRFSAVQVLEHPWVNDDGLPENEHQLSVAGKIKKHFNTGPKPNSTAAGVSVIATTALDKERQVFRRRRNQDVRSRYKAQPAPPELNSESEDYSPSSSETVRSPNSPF
# DCAMKL3 = biological target: T2, DCAMKL3 (Homo sapiens, UniProt Q9C098)
# T2 construct: gene DCLK3
# EPHA3 = EPHA3 (Homo sapiens, UniProt P29320)
# EPHA8 = EPHA8 (Homo sapiens, UniProt P29322)
# FLT3(D835V) = FLT3(D835V) (Homo sapiens, UniProt P36888, D835V)
# IRAK4 = IRAK4 (Homo sapiens, UniProt Q9NWZ3)
# IRAK4, sequence (Q9NWZ3 whole entry): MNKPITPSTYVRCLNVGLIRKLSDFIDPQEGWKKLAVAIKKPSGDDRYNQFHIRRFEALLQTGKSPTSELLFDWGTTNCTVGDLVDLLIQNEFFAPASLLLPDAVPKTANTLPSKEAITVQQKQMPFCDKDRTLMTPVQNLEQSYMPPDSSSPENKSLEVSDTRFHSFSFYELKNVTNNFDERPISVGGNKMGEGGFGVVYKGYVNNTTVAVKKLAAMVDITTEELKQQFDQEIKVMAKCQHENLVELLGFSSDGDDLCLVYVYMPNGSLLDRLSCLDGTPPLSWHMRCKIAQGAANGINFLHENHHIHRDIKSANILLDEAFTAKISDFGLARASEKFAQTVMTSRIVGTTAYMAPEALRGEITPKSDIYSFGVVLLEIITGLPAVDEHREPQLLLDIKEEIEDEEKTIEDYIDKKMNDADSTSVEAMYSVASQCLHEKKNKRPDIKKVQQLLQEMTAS
# LIMK2 = LIMK2 (Homo sapiens, UniProt P53671)
# MAP3K2 = MAP3K2 (Homo sapiens, UniProt Q9Y2U5)
# MEK4 = biological target: T3, MEK4 (Homo sapiens, UniProt P45985)
# T3 construct: gene MAP2K4
# MET = MET (Homo sapiens, UniProt P08581)
# MKK7 = biological target: T4, MKK7 (Homo sapiens, UniProt O14733)
# T4 construct: gene MAP2K7
# MST2 = biological target: T5, MST2 (Homo sapiens, UniProt Q13188)
# T5 construct: gene STK3
# NEK1 = NEK1 (Homo sapiens, UniProt Q96PY6)
# PAK2 = PAK2 (Homo sapiens, UniProt Q13177)
# PCTK1 = biological target: T6, PCTK1 (Homo sapiens, UniProt Q00536)
# T6 construct: gene CDK16
# PFTK1 = biological target: T7, PFTK1 (Homo sapiens, UniProt O94921)
# T7 construct: gene CDK14
# T7 sequence (O94921 whole entry): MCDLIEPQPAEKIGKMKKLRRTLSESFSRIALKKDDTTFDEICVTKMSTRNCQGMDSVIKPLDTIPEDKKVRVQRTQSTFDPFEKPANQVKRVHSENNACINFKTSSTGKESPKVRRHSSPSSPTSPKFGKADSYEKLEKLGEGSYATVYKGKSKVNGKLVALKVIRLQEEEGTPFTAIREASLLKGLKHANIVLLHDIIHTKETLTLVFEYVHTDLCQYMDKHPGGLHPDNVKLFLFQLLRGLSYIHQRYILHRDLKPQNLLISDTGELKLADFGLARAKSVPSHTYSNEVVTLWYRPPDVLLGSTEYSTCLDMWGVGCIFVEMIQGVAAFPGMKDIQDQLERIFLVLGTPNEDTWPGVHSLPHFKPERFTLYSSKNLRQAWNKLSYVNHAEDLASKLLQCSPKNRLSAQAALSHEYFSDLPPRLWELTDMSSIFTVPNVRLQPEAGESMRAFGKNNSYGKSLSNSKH
# PIK3CA = PIK3CA (Homo sapiens, UniProt P42336)
# PKN1 = PKN1 (Homo sapiens, UniProt Q16512)
# PLK1 = PLK1 (Homo sapiens, UniProt P53350)
# RIOK2 = RIOK2 (Homo sapiens, UniProt Q9BVS4)
# [3] = biological target: T8, RSK1(Kin.Dom.1-N-terminal) (Homo sapiens, UniProt Q15418)
# T8 construct: gene RPS6KA1
# T8 sequence (Q15418 whole entry): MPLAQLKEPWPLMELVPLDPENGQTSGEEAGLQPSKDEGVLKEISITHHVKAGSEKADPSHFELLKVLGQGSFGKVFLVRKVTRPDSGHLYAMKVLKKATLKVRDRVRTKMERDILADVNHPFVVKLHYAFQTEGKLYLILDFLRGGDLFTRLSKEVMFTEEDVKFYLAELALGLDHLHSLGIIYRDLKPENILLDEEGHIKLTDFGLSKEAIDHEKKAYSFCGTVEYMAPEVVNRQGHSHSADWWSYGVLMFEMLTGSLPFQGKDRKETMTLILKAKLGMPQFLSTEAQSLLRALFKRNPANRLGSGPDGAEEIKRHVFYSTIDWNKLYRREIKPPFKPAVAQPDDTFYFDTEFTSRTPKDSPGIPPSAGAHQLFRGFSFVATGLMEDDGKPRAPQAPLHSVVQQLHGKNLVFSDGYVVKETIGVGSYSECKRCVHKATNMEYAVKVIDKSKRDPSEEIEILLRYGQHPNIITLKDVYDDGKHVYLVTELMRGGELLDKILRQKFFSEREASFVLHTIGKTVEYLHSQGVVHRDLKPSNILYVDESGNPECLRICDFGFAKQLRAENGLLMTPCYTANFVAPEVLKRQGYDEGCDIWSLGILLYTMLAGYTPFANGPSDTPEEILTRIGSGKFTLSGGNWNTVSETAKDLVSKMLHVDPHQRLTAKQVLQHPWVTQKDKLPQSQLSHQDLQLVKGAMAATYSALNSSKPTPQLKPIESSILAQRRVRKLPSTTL
# [4] = biological target: T9, RSK2(Kin.Dom.1-N-terminal) (Homo sapiens, UniProt P51812)
# T9 construct: gene RPS6KA3
# T9 sequence (P51812 whole entry): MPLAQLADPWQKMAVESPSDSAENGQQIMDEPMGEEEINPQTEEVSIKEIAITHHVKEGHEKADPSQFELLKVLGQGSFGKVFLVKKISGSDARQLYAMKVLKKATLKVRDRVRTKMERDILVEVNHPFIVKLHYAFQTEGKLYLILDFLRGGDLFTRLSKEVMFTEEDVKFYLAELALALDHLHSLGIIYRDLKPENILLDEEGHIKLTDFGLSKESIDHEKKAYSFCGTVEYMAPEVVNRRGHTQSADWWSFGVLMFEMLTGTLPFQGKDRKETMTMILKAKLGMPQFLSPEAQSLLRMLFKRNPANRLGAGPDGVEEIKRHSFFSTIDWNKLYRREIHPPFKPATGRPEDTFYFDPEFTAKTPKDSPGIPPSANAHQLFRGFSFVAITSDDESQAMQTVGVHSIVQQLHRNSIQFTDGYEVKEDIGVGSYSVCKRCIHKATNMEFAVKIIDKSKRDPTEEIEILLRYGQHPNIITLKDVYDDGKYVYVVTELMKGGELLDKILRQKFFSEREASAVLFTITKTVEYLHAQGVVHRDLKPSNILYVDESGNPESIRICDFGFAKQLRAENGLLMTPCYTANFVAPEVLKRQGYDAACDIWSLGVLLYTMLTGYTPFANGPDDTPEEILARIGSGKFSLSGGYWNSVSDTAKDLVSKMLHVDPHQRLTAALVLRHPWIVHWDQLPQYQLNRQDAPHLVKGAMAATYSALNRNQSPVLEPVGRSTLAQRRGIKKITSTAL
# SBK1 = SBK1 (Homo sapiens, UniProt Q52WX2)
# SBK1, sequence (Q52WX2 whole entry): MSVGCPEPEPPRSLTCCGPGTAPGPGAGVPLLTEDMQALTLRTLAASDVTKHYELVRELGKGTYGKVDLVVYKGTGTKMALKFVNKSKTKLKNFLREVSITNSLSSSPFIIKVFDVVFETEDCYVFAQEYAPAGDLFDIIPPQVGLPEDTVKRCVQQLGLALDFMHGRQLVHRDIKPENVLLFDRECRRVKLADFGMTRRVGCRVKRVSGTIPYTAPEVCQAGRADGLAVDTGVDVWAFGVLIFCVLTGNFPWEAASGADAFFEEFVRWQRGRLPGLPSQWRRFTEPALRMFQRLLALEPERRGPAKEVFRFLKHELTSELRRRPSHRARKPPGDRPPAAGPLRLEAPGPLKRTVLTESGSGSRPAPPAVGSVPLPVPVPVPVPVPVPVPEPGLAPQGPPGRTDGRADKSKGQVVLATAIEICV
# SNARK = biological target: T10, SNARK (Homo sapiens, UniProt Q9H093)
# T10 construct: gene NUAK2
# STK35 = STK35 (Homo sapiens, UniProt Q8TDR2)
# STK35, sequence (Q8TDR2 whole entry): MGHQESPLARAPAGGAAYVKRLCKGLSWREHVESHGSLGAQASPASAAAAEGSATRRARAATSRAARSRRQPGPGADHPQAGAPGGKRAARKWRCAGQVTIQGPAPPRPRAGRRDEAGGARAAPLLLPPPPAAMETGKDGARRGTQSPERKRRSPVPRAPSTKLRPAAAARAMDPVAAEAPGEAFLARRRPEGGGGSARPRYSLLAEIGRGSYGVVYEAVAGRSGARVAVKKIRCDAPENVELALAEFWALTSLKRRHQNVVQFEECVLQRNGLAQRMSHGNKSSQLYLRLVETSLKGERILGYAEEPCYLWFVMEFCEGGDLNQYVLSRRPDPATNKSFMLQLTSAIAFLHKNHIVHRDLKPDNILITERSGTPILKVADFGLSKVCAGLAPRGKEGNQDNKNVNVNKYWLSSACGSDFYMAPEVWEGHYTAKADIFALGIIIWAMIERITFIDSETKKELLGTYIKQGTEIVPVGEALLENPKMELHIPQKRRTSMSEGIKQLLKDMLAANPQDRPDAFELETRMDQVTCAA
# SYK = SYK (Homo sapiens, UniProt P43405)
# TAK1 = biological target: T11, TAK1 (Homo sapiens, UniProt O43318)
# T11 construct: gene MAP3K7
# p38-delta = biological target: T12, p38-delta (Homo sapiens, UniProt O15264)
# T12 construct: gene MAPK13
# T12 sequence (O15264 whole entry): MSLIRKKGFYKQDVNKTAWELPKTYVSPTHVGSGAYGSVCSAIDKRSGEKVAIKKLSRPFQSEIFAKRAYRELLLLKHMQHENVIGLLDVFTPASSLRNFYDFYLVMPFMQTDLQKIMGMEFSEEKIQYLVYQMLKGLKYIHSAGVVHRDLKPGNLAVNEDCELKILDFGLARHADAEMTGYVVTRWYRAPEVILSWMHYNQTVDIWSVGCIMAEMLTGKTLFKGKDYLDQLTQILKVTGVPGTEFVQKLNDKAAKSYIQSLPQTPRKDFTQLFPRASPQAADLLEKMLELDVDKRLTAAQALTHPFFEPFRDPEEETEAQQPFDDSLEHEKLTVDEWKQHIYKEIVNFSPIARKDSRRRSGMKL
structure (smiles),measurement,setting,value
Cc1cn(-c2cc(NC(=O)c3ccc4c(c3)CN(c3cncnc3)C[C@@H]4C)cc(C(F)(F)F)c2)cn1 [Compound 6j],remaining activity at 1 µM,[1],47%
same,remaining activity at 1 µM,[2],98%
same,remaining activity at 1 µM,CAMK2A,97%
same,remaining activity at 1 µM,CDK2,86%
same,remaining activity at 1 µM,CSF1R-autoinhibited,93%
same,remaining activity at 1 µM,CSNK1A1,57%
same,remaining activity at 1 µM,DAPK2,94%
same,remaining activity at 1 µM,DCAMKL1,100%
same,remaining activity at 1 µM,DCAMKL3,86%
same,remaining activity at 1 µM,EPHA3,55%
same,remaining activity at 1 µM,EPHA8,21%
same,remaining activity at 1 µM,FLT3(D835V),48%
same,remaining activity at 1 µM,IRAK4,100%
same,remaining activity at 1 µM,LIMK2,100%
same,remaining activity at 1 µM,MAP3K2,92%
same,remaining activity at 1 µM,MEK4,96%
same,remaining activity at 1 µM,MET,100%
same,remaining activity at 1 µM,MKK7,100%
same,remaining activity at 1 µM,MST2,100%
same,remaining activity at 1 µM,NEK1,100%
same,remaining activity at 1 µM,PAK2,85%
same,remaining activity at 1 µM,PCTK1,100%
same,remaining activity at 1 µM,PFTK1,94%
same,remaining activity at 1 µM,PIK3CA,100%
same,remaining activity at 1 µM,PKN1,100%
same,remaining activity at 1 µM,PLK1,97%
same,remaining activity at 1 µM,RIOK2,77%
same,remaining activity at 1 µM,[3],96%
same,remaining activity at 1 µM,[4],100%
same,remaining activity at 1 µM,SBK1,100%
same,remaining activity at 1 µM,SNARK,100%
same,remaining activity at 1 µM,STK35,100%
same,remaining activity at 1 µM,SYK,93%
same,remaining activity at 1 µM,TAK1,93%
same,remaining activity at 1 µM,p38-delta,70%
